Assay results taken from patent US20150335548A1, “Oral Care Composition” (COLGATE-PALMOLIVE COMPANY, priority 2012, published 2015).

What was measured:
[1] = tested on: 3-day old biofilm of the artificial mouth consortium of bacteria (A. naeslundii, S. oralis, V. parvula, L. casei, F. nucleatum) and S. mutans; experiment: In vitro biofilm removal, 3-day old biofilm (protocol of Example 2); assay type: cell-based; conditions: for Percent Removal of a 3-day Oral Biofilm: […] ionic liquid in base prototype mouth rinse of Table 1, 15 minutes, relative to water control; for Percent Biofilm Removal: BMIM-based ionic liquids
Experimental: The 3-day old biofilm was grown on a 24 well plate using the artificial mouth consortium of bacteria (A. naeslundii, S. oralis, V. parvula, L. casei, F. nucleatum) and S. mutans. To generate the biofilm, plates were inoculated with saliva overnight to form a pellicle. The consortium of bacteria (1 mL) at an OD of ˜0.2 was added to each well. The bacterial media (Tryptic Soy Broth with 6% sucrose) was changed after 48 hours. The 3-day old biofilm was treated with the prototype formulation (500 μL) for 15 minutes on a plate shaker at 300 rpm. After incubation, the supernatant was discarded. The optical density of each well was measured and the percentage reduction in optical density relative to the control (water) was calculated to determine the effect of the prototype formulation on biofilm removal. […]
Water, untreated biofilm, commercially available mouthwash formulations with CPC (Cetyl pyridinium chloride) and a mouthwash containing five enzymes for combatting biofilm acted as […] for the experiment.

A. viscosus = experiment: Growth inhibition of A. viscosus (optical density over time); assay type: cell-based; conditions: for optical density of A. viscosus culture, 0 h / optical density of A. viscosus culture, 4 h / optical density of A. viscosus culture, 22 h / optical density of A. viscosus culture, 24 h: 10% concentration in a mouth rinse
Experimental: The effects of 1-decyl-3-methylimidazolium (DMIM) chloride on bacterial growth were investigated in vitro. DMIM chloride was incorporated into a prototype mouth rinse as illustrated in Table 17. […] The growth inhibition was measured as a change in optical density over time.
The antibacterial effects of various ionic liquids were determined according to the protocol described in Example 12.

[2] = tested on: 3-day old multispecies oral biofilm (artificial mouth consortium combined with Streptococcus mutans); experiment: In vitro removal of biofilm by prototype mouthrinse formulations (Example 8); assay type: cell-based; conditions: for Percent Biofilm Removal: 10% glycerin and 5% propylene glycol; for % removal in High humectant mouthwash / % removal in Low humectant mouthwash: 3-day old biofilm
Experimental: General Procedures Used to Prepare Biofilm
The analyst used a commercially available fluoride dentifrice (Colgate Pro Clinical) and a soft bristled toothbrush (Colgate 360) for routine oral hygiene for 3 days prior to the start of saliva collection. Saliva was collected in the morning, at least two hours after a meal and was centrifuged at 10,000 rpm for 20 minutes. The supernatant was decanted into a Petri dish and placed under UV for 45 minutes.
Bacteria Preparation: Bacteria were taken from the artificial mouth consortium (containing Actinomyces naeslundii, Streptococcus oralis, Veillonella parvula, Lactobacillus casei, and Fusibacterium nucleatum) and combined with Streptococcus mutans which had been grown separately in a ratio of 2:1. Bacteria were grown in tryptic soy broth (TSB) media with 6% sucrose. The resulting bacterial culture was diluted to the required volume, prior to diluting to an optical density of 0.2.
Plate Preparation: 500 μL of UV-treated saliva were added to each well of a 24-well plate. Plates were inoculated overnight in 37° C. After inoculation, excess saliva was discarded and 1 ml of bacteria was added to each well. The bacteria were allowed to attach and develop a biofilm on the bottom of each well over 2 to 4 days, changing the media every 48 hours. During media change, the old media was discarded and 1 ml of fresh media was added.
Treatment: 500 μL of ionic liquid formulation was added to each well and incubated for 4-30 minutes on a plate shaker at 300 rpm. After incubation, the supernatant was discarded. No rinsing was carried out. The optical density of each well was measured at 610 nm, and the percentage reduction in biofilm reduction relative to the control (water) was calculated.
Second Treatment: 500 μL of ionic liquid formulation was added to each well and incubated for 4-30 minutes on a plate shaker at 300 rpm. After discarding the supernatant, the optical density was measured and the percentage reduction in biofilm formation relative to the control (water) was calculated.
An 8 factor design was used. Colgate Plax Re-launch mouth rinse was used a base formulation to build upon. […] Table 11 illustrates the general formulation on the basis of which the prototype formulations were designed.
74 prototype formulations were developed. There are shown below in Table 12 (see next page). Table 12 further illustrates the percentage biofilm reduction after one 15-minute treatment of a 3-day-old biofilm with the formulation, and the viscosity for each formulation. In Table 12, PG is propylene glycol; CPC is cetyl pyridinium chloride; and TRIS is tris(2-hydroxyethyl)methylammonium methylsulfate. All amounts are given in wt %.

[3] = Teeth whitening, in-vitro removal of tooth stains (one hour soak); design: species or system human; conditions: 1M in prototype mouth wash of Table 7
Experimental: The method of determining the effects of imidazolium-based ionic liquids on teeth whitening was carried out as follows:
The initial L*a*b* measurements of dried artificially stained human teeth were captured. The teeth were then soaked in 1 ml of sample solution for one hour, and sample was replenished at 30 minutes. After treatment, teeth were soaked in DI water for approximately 10 minutes. The teeth were left to dry at least overnight, and final L*a*b* measurements were then taken. (L*a*b* refers to stain score in accordance with the Commission International de L'Eclairage Laboratory (CIELAB) color scale. L* (lightness-darkness scale), a* (red-green chroma) and b* (yellow-blue chroma)).
The whitening efficacy was determined as follows:
All the EMIM-based compounds were evaluated at 1M concentration in a prototype mouth wash formulation as illustrated in Table 7.

[4] = other ionic liquids, 3-day old biofilm
[5] = […] in base prototype mouth rinse of Table 1, 3-day old biofilm
[6] = direct comparison EMIM vs BMIM with different anions, 3-day old biofilm
[7] = one ionic liquid at 10, the other at 0
[8] = one ionic liquid at 20, the other at 0
[9] = EMIM-based ionic liquids, […] in base prototype mouth rinse of Table 1, 3-day old biofilm

Compound	Percent Removal of a 3-day Oral Biofilm [1] [%]	optical density of A. viscosus culture, 0 h (A. viscosus)	optical density of A. viscosus culture, 4 h (A. viscosus)	optical density of A. viscosus culture, 22 h (A. viscosus)	optical density of A. viscosus culture, 24 h (A. viscosus)	other results
1,2,4-trimethylpyrazolium methylsulfate [MMMPz MeSO4]	57.8	0.1482	0.1978	0.8519	1.0042	Percent Biofilm Removed [1, 4]: 57.9%
C=CCn1cc[n+](C)c1.[Cl-] [AMIM Cl, 1-allyl-3-methylimidazolium (AMIM) chloride]	44.8	0.1482	0.2265	0.7091	0.8440	biofilm removal, comparison in words ([1]; 3-day old biofilm): effective in removing biofilm; Percent Biofilm Removed [1, 4]: 44.8%
CCCCn1cc[n+](C)c1.[Br-] [BMIM Br, 1-butyl-3-methylimidazolium (BMIM) bromide]	48.0	0.1482	0.2373	0.5994	0.8244	Percent Biofilm Removal [1, 5]: 48.0%; Percent Biofilm Removed [1, 6]: 48.0%
CCCCn1cc[n+](C)c1.[Cl-] [BMIM Cl, 1-butyl-3-methylimidazolium (BMIM) chloride]	43.8					Percent Biofilm Removal [1, 5]: 43.8%; Percent Biofilm Removed [1, 6]: 43.8%
CCCCn1cc[n+](C)c1.COS(=O)(=O)[O-] [BMIM MeSO4, BMIM methyl sulfate]	53.9					Percent Biofilm Removal [1, 5]: 53.9%
CC(=O)[O-].CCCCn1cc[n+](C)c1 [BMIM OAc, BMIM acetate]	55.9					Percent Biofilm Removal [1, 5]: 55.8%; Percent Biofilm Removed [1, 6]: 55.8%
CCCCCCCCOS(=O)(=O)[O-].CCCCn1cc[n+](C)c1 [BMIM Octyl SO4, BMIM octyl sulfate]	58.6					Percent Biofilm Removal [1, 5]: 58.6%
C[N+](C)(C)CCO.O=C([O-])c1ccccc1O [Choline salicylate, choline salicylate]		0.1482	0.1523	0.1542	0.1539	Percent Biofilm Removal [2, 7]: 48%; Percent biofilm removal if sorbitol at 20% [2, 7]: 53%; Percent Biofilm Removal [2, 8]: 61%; Percent biofilm removal if sorbitol at 20% [2, 8]: 66%; growth inhibition of A. viscosus, in words (A. viscosus; formulated at 10% concentration in a mouth rinse): greater growth inhibition of A. viscosus than control compositions containing cetyl pyridinium chloride
CCn1cc[n+](C)c1.[Cl-] [EMIM Cl, 1-ethyl-3-methylimidazolium (EMIM) chloride]	44.3					Percent Biofilm Removed [1, 9]: 44.3%; Percent Biofilm Removed [1, 6]: 44.3%
CCOS(=O)(=O)[O-].CCn1cc[n+](C)c1 [EMIM Ethyl SO4, EMIM ethyl sulfate]	48.1	0.1482	0.2499	0.7514	0.7965	Percent Biofilm Removed [1, 9]: 48.1%; ΔE [3]: 4.41; ΔL [3]: 3.40; ΔW [3]: −2.99
CC(=O)[O-].CCn1cc[n+](C)c1 [EMIM OAc, EMIM acetate]	52.1	0.1482	0.2324	0.7942	0.8223	Percent Biofilm Removed [1, 9]: 52.1%; Percent Biofilm Removed [1, 6]: 52.1%
CCn1cc[n+](C)c1.Cc1ccc(S(=O)(=O)[O-])cc1 [EMIM Tosylate, EMIM tosylate]	59.5					Percent Biofilm Removed [1, 9]: 59.5%
CCOP(=O)([O-])OCC.CCn1cc[n+](C)c1 [EMIM diethyl PO4, EMIM diethyl phosphate]	52.7					Percent Biofilm Removed [1, 9]: 52.7%
C[N+](C)(C)CCO.[Cl-] [F: Choline chloride, Choline chloride]		0.1482	0.2445	1.0236	1.0674	
COS(=O)(=O)[O-].Cc1n(C)cc[n+]1C [TMIM MeSO4, 1,2,3-trimethylimidazolium (TMIM) methyl sulfate]	51.8					Percent Biofilm Removed [1, 4]: 51.8%
OC[C@@H](O)[C@@H](O)[C@H](O)[C@@H](O)CO [sorbitol]						increase in biofilm removal ([2]; 20% sorbitol in the formulations): ~5%
choline acetate		0.1482	0.2559	0.9480	1.0385	
tris(2-hydroxyethyl)methylammonium methylsulfate [MTEOA MeSO4]	52.8	0.1482	0.2605	0.8415	0.9087	Percent Biofilm Removed [1, 4]: 52.8%; % removal in High humectant mouthwash ([2]; Conc Tris-HMAM 1%): 39.0%; % removal in Low humectant mouthwash ([2]; Conc Tris-HMAM 1%): 25.6%; % removal in High humectant mouthwash ([2]; Conc Tris-HMAM 2.5%): 50.5%; % removal in Low humectant mouthwash ([2]; Conc Tris-HMAM 2.5%): 28.2%; % removal in High humectant mouthwash ([2]; Conc Tris-HMAM 5%): 53.9%; % removal in Low humectant mouthwash ([2]; Conc Tris-HMAM 5%): 30.9%; % removal in High humectant mouthwash ([2]; Conc Tris-HMAM 10%): 57.7%; % removal in Low humectant mouthwash ([2]; Conc Tris-HMAM 10%): 46.8%; % removal in High humectant mouthwash ([2]; Conc Tris-HMAM 20%): 71.1%; % removal in Low humectant mouthwash ([2]; Conc Tris-HMAM 20%): 57.3%; % removal in High humectant mouthwash ([2]; Conc Tris-HMAM 40%): 73.2%; % removal in Low humectant mouthwash ([2]; Conc Tris-HMAM 40%): 67.1%; Percent Biofilm Removal [2, 7]: 47%; Percent biofilm removal if sorbitol at 20% [2, 7]: 52%; Percent Biofilm Removal [2, 8]: 60%; Percent biofilm removal if sorbitol at 20% [2, 8]: 65%
